Test [1] concerns the target T1, Adenosine receptor A1 (Homo sapiens) (UniProt P30542).
T1 sequence (whole entry): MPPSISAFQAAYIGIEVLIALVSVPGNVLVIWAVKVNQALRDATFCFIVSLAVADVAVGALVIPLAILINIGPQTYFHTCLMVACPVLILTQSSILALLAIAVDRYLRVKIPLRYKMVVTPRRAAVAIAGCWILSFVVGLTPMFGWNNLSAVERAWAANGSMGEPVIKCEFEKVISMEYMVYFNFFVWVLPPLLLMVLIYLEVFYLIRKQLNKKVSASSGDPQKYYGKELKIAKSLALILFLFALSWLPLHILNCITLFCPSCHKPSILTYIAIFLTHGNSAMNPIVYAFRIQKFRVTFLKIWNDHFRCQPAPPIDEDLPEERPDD
Briefly: Allosteric enhancer activity at human adenosine A1 receptor expressed in CHO cell membranes assessed as shift in [3H]CCPA Bmax level at 10 uM by saturation binding assay.

The target in test [2] is T1, Adenosine receptor A1 (Homo sapiens). The test can be described thus: Allosteric enhancer activity at human adenosine A1 receptor expressed in CHO cell membranes assessed as shift in [3H]CCPA Kd level at 10 uM by saturation binding assay.
The target is the same in test [3]. Briefly: Allosteric enhancer activity at human adenosine A1 receptor expressed in CHO cells assessed as inhibition of forskolin-induced cAMP production at 10 uM. In kind it is functional, cell-based. (Cyclic AMP is a second messenger, typically raised through Gs and lowered through Gi signalling.)
Test [4] has the same target. Briefly: Allosteric enhancer activity at human adenosine A1 receptor expressed in CHO cell membranes assessed as shift in CCPA binding Ki level at 10 uM by [3H]DPCPX competition binding assay.
The target is the same in test [5]. The test can be described thus: Allosteric enhancer activity at human adenosine A1 receptor expressed in CHO cells assessed as inhibition of forskolin-induced cAMP production at 100 nM in presence of 1 pM CCPA. It is filed as functional, cell-based.
The target is the same in test [6]. The test can be described thus: Displacement of [3H]DPCPX from human adenosine A1 receptor expressed in CHO cell membranes at 10 uM. In general terms: In a radioligand displacement assay an active substance lowers the binding of a labelled ligand.
Test [7] has as its target Adenosine receptor A2a (Homo sapiens) (UniProt P29274). Briefly: Displacement of [3H]ZM241385 from human adenosine A2A receptor expressed in CHO cell membranes at 10 uM.
Test [8] concerns the target T2, Adenosine receptor A3 (Homo sapiens) (UniProt P0DMS8).
T2 sequence (whole entry): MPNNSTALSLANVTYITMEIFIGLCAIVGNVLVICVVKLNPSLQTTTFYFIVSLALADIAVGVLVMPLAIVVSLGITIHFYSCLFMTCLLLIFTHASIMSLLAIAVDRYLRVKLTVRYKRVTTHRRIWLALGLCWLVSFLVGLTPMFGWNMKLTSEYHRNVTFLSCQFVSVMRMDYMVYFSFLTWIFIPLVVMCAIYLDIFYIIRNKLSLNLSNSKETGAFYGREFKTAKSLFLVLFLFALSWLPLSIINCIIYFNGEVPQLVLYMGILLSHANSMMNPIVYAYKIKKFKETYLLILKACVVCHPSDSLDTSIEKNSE
Briefly: Displacement of [3H]MRE-3008-F20 from human adenosine 3 receptor expressed in CHO cell membranes at 10 uM.

Test [9] concerns the target T1, Adenosine receptor A1 (Homo sapiens). The test can be described thus: Allosteric enhancer activity at human adenosine A1 receptor expressed in CHO cell membranes assessed as [3H]NECA association rate at 1 uM (reference value: 0.0183 +/- 0.0008 /nM/min). In kind it is cell-based.
The target is the same in test [10]. The test can be described thus: Allosteric enhancer activity at human adenosine A1 receptor expressed in CHO cell membranes assessed as shift in [3H}NECA binding affinity level at 1 uM.
For test [11] the target is unchanged. Briefly: Allosteric enhancer activity at human adenosine A1 receptor expressed in CHO cell membranes assessed as slowing of [3H]NECA dissociation rate level at 1 uM. It is filed as cell-based.
Test [12] shares this target. Briefly: Allosteric enhancer activity at human adenosine A1 receptor expressed in CHO cell membranes assessed as [3H]NECA dissociation rate at 1 uM (reference value: 0.0159 +/- 0.0004 /min). In kind it is cell-based.
Another test deals with T3, Adenosine receptor A1 (Rattus norvegicus, UniProt P25099).
T3 sequence (P25099 whole entry): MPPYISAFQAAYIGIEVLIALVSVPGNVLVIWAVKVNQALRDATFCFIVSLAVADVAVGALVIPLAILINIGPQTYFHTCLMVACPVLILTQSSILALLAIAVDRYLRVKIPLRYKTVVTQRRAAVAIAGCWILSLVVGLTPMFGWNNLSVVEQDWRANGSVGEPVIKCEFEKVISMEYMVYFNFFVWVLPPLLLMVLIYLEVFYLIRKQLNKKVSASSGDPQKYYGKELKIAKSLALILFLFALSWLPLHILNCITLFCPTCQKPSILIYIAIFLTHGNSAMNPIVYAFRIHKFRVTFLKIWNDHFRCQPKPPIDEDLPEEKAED
The test can be described thus: Displacement of [3H]DPCPX from adenosine A1 receptor in rat membranes. In kind it is cell membranes.

Activity calls are given as the source filed them. No cut-off for these calls is given here. Some results are limits rather than exact numbers.

Sequence of Adenosine receptor A2a (Homo sapiens) (P29274 whole entry): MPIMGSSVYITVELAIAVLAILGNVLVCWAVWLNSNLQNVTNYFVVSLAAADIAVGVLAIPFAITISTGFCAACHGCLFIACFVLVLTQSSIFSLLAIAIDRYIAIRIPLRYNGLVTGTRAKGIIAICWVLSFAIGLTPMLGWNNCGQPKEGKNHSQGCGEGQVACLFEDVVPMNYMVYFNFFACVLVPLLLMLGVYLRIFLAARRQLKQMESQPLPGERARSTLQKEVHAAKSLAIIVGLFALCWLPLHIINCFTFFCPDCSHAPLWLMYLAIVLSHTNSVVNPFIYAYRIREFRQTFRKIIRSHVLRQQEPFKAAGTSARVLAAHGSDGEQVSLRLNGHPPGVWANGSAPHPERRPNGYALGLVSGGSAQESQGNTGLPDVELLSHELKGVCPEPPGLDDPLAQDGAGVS

For `CCCCCC#Cc1sc(N)c(C(=O)c2ccc(Cl)cc2)c1CC(C)(C)C`, the fold change (FC) in test [1] stood at 6.3; in test [4], 4.1. The outcome in test [2] was inactive. For the same compound, the inhibition (commonly the relative decrease from the control value, in per cent) in [3] was 66%; in test [5] it was 69%; in [6], under 15%; in test [7] it was under 15%; in test [8], under 15%.
`CC(C)(C)Cc1c(C#Cc2ccccc2)sc(N)c1C(=O)c1ccc(Cl)cc1`: the fold change (FC) in test [1] was 9.5; in test [4] it was 9.9; in test [10], 1.9; in [11], 2.1. Besides, the K in [9] was 273000 M⁻¹ s⁻¹; in test [12], 0.0076 min⁻¹. The result in test [2] was inactive. Further, the inhibition in test [3] is 75%; in test [5], 77%; in test [6], under 15%; in [7] it was under 15%; in test [8], under 15%.
Consider `COc1ccc(C#Cc2sc(N)c(C(=O)c3ccc(Cl)cc3)c2CC(C)(C)C)cc1`, for which the fold change (FC) in test [1] amounted to 7.4; in test [4], 8.2. Moreover, in test [2], the outcome was inactive. The inhibition is 71% in test [3]; 79% in [5]; under 15% in test [6]; under 15% in [7]; under 15% in [8].
In the case of `Cc1sc(N)c(C(=O)c2cccc(C(F)(F)F)c2)c1C`, the results for the fold change (FC) in test [1], in [4] and in test [10] were 1.3, 1.3 and 1.2, respectively. For the same compound, the K came out at 318000 M⁻¹ s⁻¹ in test [9] and 0.0143 min⁻¹ in [12]. The outcome in test [2] was inactive. Besides, the inhibition entry in test [6] and in test [7] was “inactive” in each case. Besides, the affinity on Adenosine receptor A1 corresponds to a Ki of 11 µM.
On to `Cc1c(CCc2ccccc2)sc(N)c1C(=O)c1ccc(Cl)cc1`, for which the fold change (FC) in test [1] is 2.2; in test [4], 1.6. For the same compound, the inhibition is 28% in test [3]; 27% in [5]; under 15% in [6]; under 15% in test [7]; under 15% in [8].
Turning to `Cc1cccc(C#Cc2sc(N)c(C(=O)c3ccc(Cl)cc3)c2CC(C)(C)C)c1`, the fold change (FC) in test [1] worked out at 7.5; in test [4], 7.1. The inhibition is 68% in test [3]; 71% in test [5]; under 15% in [6]; under 15% in test [7]; under 15% in test [8].
As to `Nc1sc(C#Cc2ccccc2)c(CN(C2CCCCC2)C2CCCCC2)c1C(=O)c1ccc(Cl)cc1`, the fold change (FC) in test [1] was found to be 1.2; in test [4], 3.7. The inhibition in test [3] is 10%; in [5] it was 19%; in [6] it was under 15%; in [7], under 15%; in test [8] it was under 15%.

(Values after ChEMBL document CHEMBL3352551, “Synthesis and biological evaluation of novel allosteric enhancers of the A1 adenosine receptor based on 2-amino-3-(4'-chlorobenzoyl)-4-substituted-5-arylethynyl thiophene” (J Med Chem, 2014).)
